# Results taken from patent publication US6342368B1, “WD-40-derived peptides and uses thereof” (The Board of Trustees of the Leland Stanford Junior …, priority 1994, dated 2002).
# Entries after “also recorded” stand apart in the source; their conditions may differ.
# How the values were obtained:
# [1] = test system: PKC binding to recombinant RACK1; experiment: Overlay / overlay-extraction assay: inhibition of PKC binding to recombinant RACK1 by peptides; set-up: species or system rat; details: 10 μM peptide preincubated with PKC
# Protocol: The variation in the overlay protocol consisted of incubating the putative binding peptides with a mixture of PKC isozymes for 15 minutes at room temperature before the mixture was used to contact the nitrocellulose strips containing immobilized RACK1.
# Nitrocellulose strips containing immobilized RACK1, that had been contacted with a solution containing a mixture of PKC isozymes, were washed and the area corresponding to the 36 kDa (RACK1-containing) band was cut out. The pieces (containing PKC/RACK1 complexes) were incubated with sample buffer for 10 minutes at 80° C. The sample buffer and the nitrocellulose pieces were then placed in wells in the PAGE gel and subjected to SDS-PAGE to elute the bound proteins. The gel was blotted onto nitrocellulose and a Western blot analysis was carried out using the mixture of antibodies (specific for PKC α, β, γ, δ, ε and ζ isozymes) described in Example 1 part B. Bound antibodies were detected by ^125I-protein A.
# Peptides derived from or homologous to WD-40 repeats of RACK1 were tested for their ability to inhibit PKC binding to recombinant RACK1. Binding of PKC to RACK1 was carried out using a variation of the overlay procedure described in Example 3 part B. In the experimental samples, peptides were incubated with a solution containing a mixture of rat brain PKC isozymes (˜10 nM each) for 15 minutes at room temperature.
# Following completion of the modified overlay protocol, the samples were subjected to the overlay-extraction protocol detailed in part B, above.
# The results in FIG. 3 show the binding of PKC to RACK1, carried out without (lane 1) or with (lanes 2-4) a preincubation of peptides with PKC. […] Peptide I caused an 81±6% inhibition of PKC binding to recombinant RACK1 as compared with binding in the absence of added peptide (n=3). Lanes 3 and 4 show PKC binding following a preincubation with 10 μM peptide rIII (SEQ ID NO:4) and 10 μM peptide rVI (SEQ ID NO:7), respectively. […] The results shown are representative of three independent experiments.
# Xenopus oocytes = experiment: PKC-mediated Xenopus oocyte maturation (germinal vesicle breakdown, GVBD) after peptide microinjection; type: cell-based; details: for plateau % GVBD (fraction of oocytes reaching maturation) following insulin exposure: peptide 50 μM, 50 nl microinjected, 20 h time course
# Protocol: Exposure to insulin induces maturation in Xenopus oocytes via a PKC-dependent pathway (Smith, et al., 1992). The maturation response may be quantified by monitoring the appearance of a white spot in the animal hemisphere of the oocyte, indicating germinal vesicle breakdown (GVBD) and maturation. To assess the effects of RACK1 WD-40-derived peptides on insulin-induced PKC-mediated maturation, 50 nl of a 20 mM NaCl solution containing the indicated peptides [peptide I (SEQ ID NO:1; ●), peptide rVI (SEQ ID NO:7; ▪), or injection solution (□)] (peptides at 50 μM) were microinjected into Xenopus oocytes. […] One hour following the peptide injections, the oocytes were exposed to a solution containing insulin (8.25 μg/ml) for 2 minutes (t=0). 10-15 oocytes were used for each sample.
# The data, representative of three independent experiments, are expressed as the percent of oocytes with GVBD following insulin exposure and are plotted as a function of time in FIG. 5.
# βPKC = target: T1, βPKC (Rattus norvegicus, UniProt P68403); experiment: Sensitivity of βPKC to Arg-C endopeptidase (nicking); type: biochemical; details: low activators: 2.5 μg/ml PS and 50 μM CaCl2; peptide 10 μM
# T1 construct: All the solutions contained 5 nM rat brain PKC; from tissue; host or cells: rat brain
# T1 sequence (P68403 whole entry): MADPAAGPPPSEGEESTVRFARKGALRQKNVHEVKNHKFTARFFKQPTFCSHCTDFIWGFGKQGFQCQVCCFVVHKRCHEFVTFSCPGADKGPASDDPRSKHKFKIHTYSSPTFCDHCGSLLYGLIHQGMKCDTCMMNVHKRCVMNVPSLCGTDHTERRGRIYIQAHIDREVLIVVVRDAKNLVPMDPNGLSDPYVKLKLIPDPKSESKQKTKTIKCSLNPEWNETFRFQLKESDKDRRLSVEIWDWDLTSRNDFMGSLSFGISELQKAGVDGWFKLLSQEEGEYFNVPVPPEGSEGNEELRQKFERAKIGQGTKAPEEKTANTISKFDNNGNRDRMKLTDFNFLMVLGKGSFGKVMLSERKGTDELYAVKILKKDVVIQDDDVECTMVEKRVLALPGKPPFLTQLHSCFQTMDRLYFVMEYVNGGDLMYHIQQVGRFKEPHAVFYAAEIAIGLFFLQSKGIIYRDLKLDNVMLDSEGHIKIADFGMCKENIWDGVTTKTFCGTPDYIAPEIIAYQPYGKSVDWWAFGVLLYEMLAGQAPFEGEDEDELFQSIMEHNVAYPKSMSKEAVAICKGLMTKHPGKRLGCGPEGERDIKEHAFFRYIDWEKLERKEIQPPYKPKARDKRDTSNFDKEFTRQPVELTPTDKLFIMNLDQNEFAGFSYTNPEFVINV
# Text: Upon activation of PKC, a pseudosubstrate autoinhibitory sequence at the N-terminus of the molecule dissociates from the catalytic site and becomes sensitive to endopeptidase Arg-C (Orr, et al.). In the absence of PKC activators, exposure of the 80 kDa βPKC to endopeptidase Arg-C has no effect on the enzyme (see FIG. 7, lane 1). In the presence of the PKC activators PS, DG and calcium, however, exposure of βPKC to Arg-C results in a “nicking” of the PKC (i.e. limited proteolysis generating a 78 kDa fragment and several small fragments (see FIG. 7, lane 2)). Continued exposure to Arg-C results in the disappearance of βPKC (Orr, et al.). The present experiment tests whether peptides derived from the WD-40 region of RACK1 alter the sensitivity of βPKC to endopeptidase Arg-C.
# The methods used to assay Arg-C sensitivity are a modification of methods described by Orr, et al. Rat brain PKC (˜5 nM) was incubated at room temperature in 500 μl of 20 mM Tris-HCl buffer (pH 7.5) alone or with Arg-C (5 units/ml) in the presence or absence of the indicated peptides (final concentration 10 μM or as indicated), PS, DG, and calcium (as indicated). 50 μl aliquots were removed into 20 μl of sample buffer during the reaction as indicated (samples in all the lanes were incubated for 30 minutes , except lanes 5, and 6, which were incubated for 5 and 15 minutes, respectively). The samples were boiled for 10 minutes at 80° C. and loaded onto 8% SDS-PAGE. βPKC was detected by Western blot analysis using anti-βPKC antibodies as described in Examples 6 and 8.
# PKC was incubated for the indicated time alone (lane 1) or in the presence of Arg-C (lanes 2-9), with DG (0.8 μg/ml), PS (50 μg/ml) and CaCl2 (1 mM; lane 2), with PS (50 μg/ml) and CaCl2 (1 mM; lane 3), with PS (2.5 μg/ml) and CaCl2 (50 μM; lane 4); with PS (2.5 μg/ml), CaCl2 (50 μM) and with either peptide rVI (SEQ ID NO:7; 10 μM; lanes 5-7), control peptide (SEQ ID NO:9; lane 8) or with peptide I (SEQ ID NO:1; lane 9).
# PKC [2] = experiment: Histone type IIIs phosphorylation by PKC; type: biochemical; details: absence of PS, DG and calcium; peptide 10 μM
# Protocol: Histone type IIIs (Sigma Chemical Company, St. Louis, Mo.) was phosphorylated by PKC (˜10 nM) in the absence (lane 1) and presence of peptide rVI (10 μM) (lanes 2 and 3) and in the presence and absence of DG (0.8 μg/ml), PS (50 μg/ml) and CaCl2 (1 mM) (lane 3). The results are expressed as percentage of control that is the amount of Histone phosphorylation by PKC in the presence of DG (0.8 μg/ml), PS (50 μg/ml) and CaCl2 (1 mM). The results are the average ± SEM of two independent experiments. PKC was first incubated with the peptide rVI (10 μM) for 15 minutes in overlay buffer as described above. Histone type IIIs (40 μg/ml) was added in Tris-HCl (20 mM), MgCl2 (20 mM), ATP (20 μM) and ([γ-^32P]ATP (5 μci/ml) with or without PS (50 μg/ml), DG (0.8 μg/ml) and CaCl2 (1 mM). Histone phosphorylation was determined by autoradiography as above.
# δ and εPKC isozymes = experiment: PKC isozyme translocation and degradation in cardiac myocytes; type: cell-based, rat
# Protocol: In cardiac myocytes, norepinephrine (NE, 2 μM) causes translocation of δ and εPKC isozymes from the cytosolic to the particulate fraction. […] This peptide-induced translocation was followed by degradation of δ and εPKC isozymes.
# PKC [3] = experiment: PKC autophosphorylation; type: biochemical, rat; details: peptide 10 μM; absence of PKC activators
# Protocol: Rat brain PKC (˜10 nM) was incubated with mild agitation in a final volume of 250 μl of overlay buffer, as in Example 1 either with anti-βPKC pseudosubstrate antibodies (1:10 dilution, Life Technologies, Gaithersburg, Md.) or with the indicated peptide (10 μM). Where indicated, PS (50 μg/ml), DG (0.8 μg/ml) and CaCl2 (1 mM) were also added. The amount of autophosphorylation was determined after 2 hours for the reaction with the anti-pseudosubstrate antibodies, or after 15 minutes for the other samples. 50 μl of a buffer comprised of 20 mM Tris-HCl (pH 7.5), 20 mM MgCl2, 20 μM ATP and 5 μci/ml [γ-^32P]ATP. The mixture was incubated for 15 minutes at room temperature and the reaction was stopped by adding 60 μl sample buffer (see Example 9). The samples were then boiled for 10 minutes, loaded onto a 10% SDS-PAGE mini gel and electrophoresed. The gel was fixed with 50% methanol and 10% acetic acid for 1 hour, and the autophosphorylation of PKC was determined by autoradiography.
# The results in FIG. 8 show PKC autophosphorylation in the presence of DG, PS, and calcium (lane 1), in the presence of EGTA (lane 2), in the presence of anti-βPKC pseudosubstrate antibodies (diluted 1:10 in 20 mM Tris-HCl; lane 3), in the presence of peptide rVI (SEQ ID NO:7; 10 μM; lane 4), in the presence of peptide I (SEQ ID NO:1; 10 μM; lane 5), or in the presence of control peptide (SEQ ID NO:9; 10 μM; lane 6).
# [4] = peptide introduced into cardiac myocytes
# [5] = peptide 50 μM microinjected, insulin 8.25 μg/ml
substance,measurement,setting,value
peptide rVII: synthetic peptide based on the corresponding region of RACK1 WD-40 repeat VII (PQCTSLA),inhibition of PKC binding to RACK1 (in words),[1],no inhibition
peptide rIII: seven amino acid peptide identical to a segment of RACK1 WD-40 repeat III (DVLSVAF),inhibition of PKC binding to RACK1 (in words),[1],inhibit the binding of PKC to RACK1; also recorded: somewhat more effective than peptide rVI
same,effect on insulin-induced oocyte maturation (in words),Xenopus oocytes; at 50 and 500 μM,enhances insulin-induced oocyte maturation
same,plateau % GVBD (fraction of oocytes reaching maturation) following insulin exposure,Xenopus oocytes; insulin 8.25 μg/ml,~100%
same,effect on insulin-induced oocyte maturation (in words),"Xenopus oocytes; peptide microinjected, insulin",potentiated the effects of insulin on oocyte maturation
same,nicking of βPKC by Arg-C (78 kDa fragment),βPKC,appearance of the 78 kDa nicked PKC fragment
same,induction of PKC-mediated histone phosphorylation,PKC [2],similarly induced histone phosphorylation
same,NE-induced translocation of δ and εPKC,δ and εPKC isozymes; norepinephrine 2 μM,further enhanced
same,degradation of PKC isozymes,δ and εPKC isozymes; [4],followed by degradation of these activated isozymes; also recorded: accelerated the degradation of PKC
same,translocation / distribution of δ and εPKC isozymes in the absence of hormone stimulation,δ and εPKC isozymes; [4],caused an immediate translocation
peptide rV: synthetic peptide based on the corresponding region of RACK1 WD-40 repeat V (GYLNTVT),inhibition of PKC binding to RACK1 (in words),[1],lesser inhibitory effect
peptide rI: synthetic peptide based on the corresponding region of RACK1 WD-40 repeat I (VTQIATT),inhibition of PKC binding to RACK1 (in words),[1],effective inhibitors
peptide rII: synthetic peptide based on the corresponding region of RACK1 WD-40 repeat II (FVSDVVI),inhibition of PKC binding to RACK1 (in words),[1],effective inhibitors
control peptide: control peptide (SEQ ID NO:9) (LKGKIL) [reference compound],delay to onset of maturation after exposure to insulin,Xenopus oocytes; [5],4 to 5 h
same,time to reach GVBD plateau after insulin exposure,Xenopus oocytes; [5],10 to 12 h
same,plateau % GVBD (fraction of oocytes reaching maturation) following insulin exposure,Xenopus oocytes; insulin 8.25 μg/ml,85-90%
same,nicking of βPKC by Arg-C (78 kDa fragment),βPKC,did not result in appreciable nicking activity; also recorded: did not occur
same,induction of PKC autophosphorylation (in words),PKC [3],No autophosphorylation; also recorded: Neither peptide I nor control peptide induced PKC autophosphorylation
rIV: synthetic peptide based on the corresponding region of RACK1 WD-40 repeat IV (VSCVRFS),inhibition of PKC binding to RACK1 (in words),[1],lesser inhibitory effect
